Data reported in a melting point compilation (Tetko et al.; mined from patent text by program, amines drawn as free bases though some values may be those of a salt).

Structure (SMILES)	melting point [°C]
CSCCC(=O)Nc1ccc(-n2nc(C(F)(F)F)cc2C(F)(F)F)cc1	122 to 123
OC(Cn1ccnc1)c1cccc2ccccc12 (stereo unspecified)	112 to 115
O=C(O)COc1ccc(C(=O)CN2CCN(c3ccncc3)CC2)cc1	294 to 296
CCc1nnc2c(N)nc3ccccc3n12	284 to 288
C=CCN(C#N)c1c(Cl)ccc2nsnc12	62 to 63
O=C(N[C@H]1CCCNC1=O)c1c(F)cccc1F	190 to 194
CC(C)(C)OC(=O)c1ncn2c1[C@@H]1CCN1C(=O)c1ccccc1-2	185 to 187
Cc1c2c(nn1C(C)C)c(N)nc1ccccc12	221 to 222
CC(=O)NCC[C@@H]1CCc2ccc3nn(C)c(Cl)c3c21	168 to 171
COc1cc(C)c2[nH]ccc2c1C(C)(N)c1nc2cc(C#N)ccc2[nH]1 (single isomer, unassigned; (-))	201
CCc1ccc(-c2ccc(C(=O)N[C@@H]3CCc4cccc(N5CCN(C)CC5)c4C3)cc2)cc1	234 to 235
Cc1cccc2c1ncn2Cc1oc2ccccc2c(=O)c1-c1ccccc1	204 to 208
COc1ccc(/C=C(\C#N)c2ccc(O)cc2)cc1OC1CCCC1	138 to 140
Cc1ccc(C(=O)Nc2ccc(C(=O)N3Cc4ccccc4Cc4ccccc43)cc2)c(C)c1	197 to 199
C#Cc1cccc(N2C(=O)c3ccc([N+](=O)[O-])cc3C2=O)c1	257 to 259
CS(=O)(=O)Nc1ccccc1SCc1ncon1	106
CC(C)(C)c1ncn(Sc2ncc([N+](=O)[O-])s2)n1	219 to 221
COc1cc(-c2oc3c(OC)cc(/C=C/C=O)cc3c2C)ccc1O	169 to 170
CON=C1CSc2cccc(Cl)c2CN1	120 to 121

Continued, values first:

melting point [°C]	Structure (SMILES)
244	CC(=O)Nc1nc(OC(C)C)c2nc(Cl)ccc2n1
115 to 116	Cc1oc(-c2ccccc2)nc1CCOc1ccc(/C=C/CO)cn1
285 to 300	Cc1cccc(NC(=O)NC2CC(c3ccccc3F)c3ccccc3N(CC(=O)NC(C)(C)C)C2=O)c1 (stereo unspecified)
104 to 106	CCOP(=O)(CC(Nc1cccnc1)c1cc(OC)c(OC)c(OC)c1)OCC (stereo unspecified)
46 to 48	COC(=O)c1cc(OCCCCCCCCCCCCOc2ccccc2)ccc1OCc1ccccc1
138 to 140	CCCCc1cnc(SC)[nH]c1=O
52 to 54	CCCCCCCCCCCCCCOCC(COCCCCCCCCCCCCCC)(CC(=O)N(C)C)CC(=O)N(C)C
121 to 123	O=C(CCCCN1CCN(c2cccc(Cl)c2Cl)CC1)N1CCc2ccccc21
128 to 130	COc1cc2c(cc1OC)N(C(=O)OCc1ccccc1)C(C)CC2=O (stereo unspecified)
130 to 133	CCN(CC)CCC(=O)NC1(c2ccccc2Cl)C(=O)N(S(=O)(=O)c2ccc3c(c2)CCN3C(=O)N(CC)CC)c2ccc(Cl)cc21 (stereo unspecified)
154 to 155	Cc1oc(-c2ccco2)nc1COc1ccc(Cc2nc(CCC(=O)O)c(-c3ccccc3)o2)cc1
112 to 113	CCCOc1ccccc1-c1nccc(=O)[nH]1
144 to 146	CN(C)C(=O)c1cc(O)ccc1O
92 to 93	CC1(C(=O)C(N)=O)CC1(Cl)Cl (stereo unspecified)
187 to 190	Cn1ccnc1C1=Cc2cc(OC(C)(C)C(=O)O)ccc2OC1
106 to 109	CCOCn1c(Cl)c(C#N)c(Cl)c1-c1ccc(Cl)c(Cl)c1
228	O=C(O)c1cccc(C(=O)c2ccc(Cl)cc2)c1
153 to 154	CCCCOc1c(CNC(=O)OC(C)(C)C)n(CC(C)C)c(=O)c2ccc(CO)cc12
176 to 177	COCCNC(=O)c1cccc(-c2nc(=O)c3ccccc3s2)n1
174 to 175	Cc1c(Br)c(NC(=O)CC(C)(C)C)c(C)c2c1OCC2c1ccc(C(C)C)cc1 (stereo unspecified)
154 to 155	CCCOc1ccc(Br)cc1-c1nc2cc3nc[nH]c3cc2c(=O)[nH]1
150 to 153	CN(C)S(=O)(=O)c1cc2c(O)cccc2o1
